Values quoted from earlier work in patent US20030109682A1, “Maytansines and maytansine conjugates” (priority 2001, published 2003).

Key:
[1] = tested on: acute lymphocytic leukemia, breast carcinoma, ovarian cancer, thymoma, melanoma, and non-small scale lung cancer; details: Phase I, patients with acute lymphocytic leukemia
[2] = Phase II trials

COc1cc2cc(c1Cl)N(C)C(=O)C[C@H](OC(=O)[C@H](C)N(C)C(C)=O)[C@]1(C)O[C@H]1[C@H](C)[C@@H]1C[C@@](O)(NC(=O)O1)[C@H](OC)/C=C/C=C(\C)C2 [Maytansine]
clinical response [1]: encouraging responses | gastrointestinal toxicity [2]: manageable gastrointentinal toxicity | neurotoxicity at the site of administration [2]: pain of such magnitude as to prevent further administration
